Laboratory results: publication PMC5874133 (Science immunology, 2018)

Tested on: ZnT8_186–194-reactive CD8^+ T-cell clones
Assay type: cell-based, human
Conditions: MMr co-staining (Fig. 7D) and in-vitro recall (Fig. 7E); clones D222D 2, D349D 178B9, H017N A1, H328C 9C8

KAANIVLTV [B. stercoris mimotope]
ZnT8_186–194-reactive clones cross-recognizing the mimotope: 1 of 4
